# Reference: patent US6424857B1, “Use of acousto-optical and sonoluminescene contrast agents” (Amersham Health AS, priority 1997, dated 2002)
# Assay: Solubility in water and sesame oil
smiles,measurement,setting,value
Oc1ccc2ccccc2c1N=Nc1ccc(N=Nc2ccccc2)cc1 [Sudan III],solubility in sesame oil,sesame oil,soluble
same,solubility in water,water,very water insoluble
